Converted amounts (≈) assume the structure as drawn. Like-named read-outs stand apart in the source and are kept apart here.
Assays:
[1] = tested on: S. aureus ATCC 29213 and 31-1334; experiment: Selection of spontaneous resistant mutants (mutation frequency); format: cell-based, Staphylococcus aureus
Experimental: Approximately, 10^9 bacteria were plated onto Mueller-Hinton agar supplemented with 10% horse blood and containing various concentrations of the test compounds alone and in combination. After 24 and 48 hours of incubation at 35° C., the bacterial colonies were counted and the frequencies of mutation were determined relative to the total viable count of organisms that were plated. Resistant clones were re-plated once on plates containing the same concentration of agent that was used for the selection.

[2] = tested on: S. aureus RN4220 (pYH4-MRS); experiment: Mode of action: MIC with MRS over-production; format: cell-based; details: S. aureus RN4220 (pYH4-MRS), +aTC (MRS over-expression)
Experimental: The strain expresses high levels of MRS upon the addition of 0.01 μg/mL of anyhdrotetracycline.

S. epidermidis [3] = experiment: MIC against S. epidermidis; format: cell-based
Experimental: The MRS inhibitor 4 alone and in combination with mupirocin (mupirocin salt and 1:1 combination) were tested against a collection of Gram-positive pathogens.
The MRS inhibitor 8 was also prepared as a fusidate and mupirocinate salt and tested for antibacterial activity against Gram-positive bacteria (Table 3). […] MRSi compound 8 alone and the fusidate and mupirocin salts were active against mupirocin-resistant S. aureus and S. epidermidis and organisms such as E. faecalis that are not susceptible to mupirocin.
The MRS inhibitor 5 acetate and mupirocin salts were tested against a collection of Gram-positive bacteria.

[4] = tested on: mupirocin-resistant S. aureus; details: cited from earlier work
S. pyogenes = experiment: Development of resistance following serial passage, S. pyogenes; format: cell-based; details: Streptococcus pyogenes
Experimental: (§1) MRSi compound 5 (acetate salt), mupirocin and MRSi compound 5/mupirocin 1:1 combination were tested for development of resistance following serial passage using 19 isolates, including S. aureus, coagulase-negative staphylococci and S. pyogenes strains.

S. hemolyticus = experiment: Development of resistance following serial passage, S. hemolyticus; format: cell-based
Experimental: as §1

S. epidermidis [5] = experiment: Development of resistance following serial passage, S. epidermidis; format: cell-based; details: Staphylococcus epidermidis
Experimental: as §1

S. aureus = experiment: Development of resistance following serial passage, S. aureus; format: cell-based; details: Staphylococcus aureus
Experimental: as §1

## C/C(=C\C(=O)OCCCCCCCCC(=O)O)C[C@@H]1OC[C@H](C[C@@H]2O[C@H]2[C@@H](C)[C@H](C)O)[C@@H](O)[C@H]1O [Mupirocin, Pseudomonic acid A]
[1]; S. aureus 31-1334 (low level mupirocin-resistant), selecting concentration 2 x MIC
  Mutation Frequency (48 hours): 1.8 × 10^−8
[1]; S. aureus 31-1334 (low level mupirocin-resistant), selecting concentration 4 x MIC
  Mutation Frequency (48 hours): 2 × 10^−9
[1]; S. aureus 31-1334 (low level mupirocin-resistant), selecting concentration 8 x MIC
  Mutation Frequency (48 hours): <1 × 10^−9
[1]; S. aureus ATCC 29213 (mupirocin susceptible), selecting concentration 2 x MIC
  Mutation Frequency (48 hours): 1.25 × 10^−7
[1]; S. aureus ATCC 29213 (mupirocin susceptible), selecting concentration 4 x MIC
  Mutation Frequency (48 hours): 1.01 × 10^−7
[1]; S. aureus ATCC 29213 (mupirocin susceptible), selecting concentration 8 x MIC
  Mutation Frequency (48 hours): 2.57 × 10^−8
[2]
  MIC: 0.06 µg/mL (≈ 0.12 µM)
S. epidermidis [3]; Staphylococcus epidermidis, Table 2, S. epidermidis NRS6, read-out: MIC
  MIC: > 8 µg/mL
S. epidermidis [3]; Staphylococcus epidermidis, Table 2, S. epidermidis NRS7, read-out: MIC
  MIC: 8 µg/mL
S. epidermidis [3]; Staphylococcus epidermidis, Table 2, S. epidermidis NRS8, read-out: MIC
  MIC: > 8 µg/mL
S. epidermidis [3]; Table 3, S. epidermidis NRS6
  MIC: >8 µg/mL
S. epidermidis [3]; Table 3, S. epidermidis NRS7
  MIC: 8 µg/mL
S. epidermidis [3]; Table 3, S. epidermidis NRS8
  MIC: >8 µg/mL
S. epidermidis [3]; Table 4, S. epidermidis NRS6
  MIC: >8 µg/mL
S. epidermidis [3]; Table 4, S. epidermidis NRS7
  MIC: 8 µg/mL
S. epidermidis [3]; Table 4, S. epidermidis NRS8
  MIC: >8 µg/mL
[4]; high level mupirocin resistance, plasmid-encoded IRS enzyme
  MICs, high level resistance (mupA): > 512 µg/mL
[4]; low level mupirocin resistance (mutations in chromosomal isoleucyl tRNA synthetase)
  MIC's, low level resistance: 8 to 256 µg/mL

## C=C(F)c1sc(CNCCCNc2cc(=O)c3ccccc3[nH]2)c(C)c1Br [MRSi Cmpd 5 acetate, N-(4-bromo-5-(1-fluorovinyl)-3-methylthiophen-2-ylmethyl)-N′-(1H-quinolin-4-one)propane-1,3-diamine]
S. pyogenes; ATCC19615, read-out: Final MIC after 20 passages
  MIC: 1 µg/mL
S. pyogenes; read-out: Final MIC after 20 passages
  MIC: 1 µg/mL
S. epidermidis [3]; Staphylococcus epidermidis, Table 4, S. epidermidis NRS6, read-out: MIC
  MIC: 0.25 µg/mL
S. epidermidis [3]; Staphylococcus epidermidis, Table 4, S. epidermidis NRS7, read-out: MIC
  MIC: 0.06 µg/mL
S. epidermidis [3]; Staphylococcus epidermidis, Table 4, S. epidermidis NRS8, read-out: MIC
  MIC: 0.12 µg/mL
S. hemolyticus; NRS116, read-out: Final MIC after 20 passages
  MIC: 16 µg/mL
S. hemolyticus; NRS116, read-out: Initial MIC
  MIC: 0.12 µg/mL
S. epidermidis [5]; NRS8, read-out: Initial MIC, S. epidermidis NRS8 (LL-MupR)
  MIC: 0.06 µg/mL
S. epidermidis [5]; read-out: Final MIC after 20 passages, S. epidermidis 936528 (HL-MupR)
  MIC: 0.5 µg/mL
S. epidermidis [5]; read-out: Final MIC after 20 passages, S. epidermidis 936606 (Oxa-R)
  MIC: 16 µg/mL
S. epidermidis [5]; read-out: Initial MIC, S. epidermidis 936528 (HL-MupR)
  MIC: 0.03 µg/mL
S. epidermidis [5]; read-out: Initial MIC, S. epidermidis 936606 (Oxa-R)
  MIC: 0.06 µg/mL
S. aureus; ATCC29213, read-out: Final MIC after 20 passages, S. aureus ATCC 29213
  MIC: 4 µg/mL
S. aureus; ATCC29213, read-out: Initial MIC, S. aureus ATCC 29213
  MIC: 0.06 µg/mL
S. aureus; ATCC43300, read-out: Final MIC after 20 passages, S. aureus ATCC 43300 (ORSA)
  MIC: 1 µg/mL
S. aureus; ATCC43300, read-out: Initial MIC, S. aureus ATCC 43300 (ORSA)
  MIC: 0.06 µg/mL
S. aureus; NRS103, read-out: Final MIC after 20 passages, S. aureus NRS103 (ORSA)
  MIC: 1 µg/mL
S. aureus; NRS103, read-out: Initial MIC, S. aureus NRS103 (ORSA)
  MIC: 0.12 µg/mL
S. aureus; NRS107, read-out: Final MIC after 20 passages, S. aureus NRS107 (HL-MupR)
  MIC: 0.5 µg/mL
S. aureus; NRS107, read-out: Initial MIC, S. aureus NRS107 (HL-MupR)
  MIC: 0.015 µg/mL
S. aureus; read-out: Final MIC after 20 passages, S. aureus 10-420 (HL-MupR)
  MIC: 8 µg/mL
S. aureus; read-out: Final MIC after 20 passages, S. aureus 25-670 (HL-MupR)
  MIC: 8 µg/mL
S. aureus; read-out: Final MIC after 20 passages, S. aureus 31-1334 (LL-MupR)
  MIC: 8 µg/mL
S. aureus; read-out: Final MIC after 20 passages, S. aureus 87-2797 (HL-MupR)
  MIC: 16 µg/mL
S. aureus; read-out: Final MIC after 20 passages, S. aureus 1079077 (ORSA)
  MIC: 16 µg/mL
S. aureus; read-out: Final MIC after 20 passages, S. aureus 1079101 (HL-MupR)
  MIC: 16 µg/mL
S. aureus; read-out: Final MIC after 20 passages, S. aureus LZ6 (HL-MupR)
  MIC: 2 µg/mL
S. aureus; read-out: Initial MIC, S. aureus 1079077 (ORSA)
  MIC: 0.25 µg/mL
